From ChEMBL document CHEMBL3991601, “The target landscape of clinical kinase drugs” (Science, 2017)
Calls of active or inactive are those of the source.

Tests used:
[1] = target: T1, Dynamin-like GTPase OPA1, mitochondrial (Homo sapiens, UniProt O60313)
T1 sequence (O60313 whole entry): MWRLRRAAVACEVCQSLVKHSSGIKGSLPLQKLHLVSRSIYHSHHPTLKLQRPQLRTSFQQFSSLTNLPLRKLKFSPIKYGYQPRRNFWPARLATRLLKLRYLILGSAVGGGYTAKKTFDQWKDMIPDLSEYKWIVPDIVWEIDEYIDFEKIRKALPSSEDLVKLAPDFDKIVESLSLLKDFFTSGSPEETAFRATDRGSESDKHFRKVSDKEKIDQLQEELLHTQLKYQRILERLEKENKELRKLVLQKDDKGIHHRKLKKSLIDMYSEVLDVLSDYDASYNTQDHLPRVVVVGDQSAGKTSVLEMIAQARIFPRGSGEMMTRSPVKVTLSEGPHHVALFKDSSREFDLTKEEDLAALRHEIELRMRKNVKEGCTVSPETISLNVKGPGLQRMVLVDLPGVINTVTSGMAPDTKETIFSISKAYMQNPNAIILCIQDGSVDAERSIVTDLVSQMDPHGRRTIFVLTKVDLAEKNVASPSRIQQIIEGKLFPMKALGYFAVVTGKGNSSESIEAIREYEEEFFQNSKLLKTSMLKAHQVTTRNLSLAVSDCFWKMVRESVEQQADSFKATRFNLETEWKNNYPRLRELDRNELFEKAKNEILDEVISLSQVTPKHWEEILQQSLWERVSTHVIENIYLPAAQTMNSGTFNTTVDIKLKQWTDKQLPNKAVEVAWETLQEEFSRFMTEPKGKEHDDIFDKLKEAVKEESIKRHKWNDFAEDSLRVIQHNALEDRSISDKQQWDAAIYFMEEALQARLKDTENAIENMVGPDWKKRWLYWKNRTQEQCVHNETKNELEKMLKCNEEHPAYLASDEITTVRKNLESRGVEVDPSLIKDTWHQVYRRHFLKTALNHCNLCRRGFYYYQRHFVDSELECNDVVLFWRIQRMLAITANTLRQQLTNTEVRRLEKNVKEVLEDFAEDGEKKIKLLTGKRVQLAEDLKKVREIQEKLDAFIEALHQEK

[2] = target: Putative heat shock protein HSP 90-beta 2 (Homo sapiens, UniProt Q58FF8)
[3] = target: T2, ATP-dependent RNA helicase DHX30 (Homo sapiens, UniProt Q7L2E3)
T2 sequence (Q7L2E3 whole entry): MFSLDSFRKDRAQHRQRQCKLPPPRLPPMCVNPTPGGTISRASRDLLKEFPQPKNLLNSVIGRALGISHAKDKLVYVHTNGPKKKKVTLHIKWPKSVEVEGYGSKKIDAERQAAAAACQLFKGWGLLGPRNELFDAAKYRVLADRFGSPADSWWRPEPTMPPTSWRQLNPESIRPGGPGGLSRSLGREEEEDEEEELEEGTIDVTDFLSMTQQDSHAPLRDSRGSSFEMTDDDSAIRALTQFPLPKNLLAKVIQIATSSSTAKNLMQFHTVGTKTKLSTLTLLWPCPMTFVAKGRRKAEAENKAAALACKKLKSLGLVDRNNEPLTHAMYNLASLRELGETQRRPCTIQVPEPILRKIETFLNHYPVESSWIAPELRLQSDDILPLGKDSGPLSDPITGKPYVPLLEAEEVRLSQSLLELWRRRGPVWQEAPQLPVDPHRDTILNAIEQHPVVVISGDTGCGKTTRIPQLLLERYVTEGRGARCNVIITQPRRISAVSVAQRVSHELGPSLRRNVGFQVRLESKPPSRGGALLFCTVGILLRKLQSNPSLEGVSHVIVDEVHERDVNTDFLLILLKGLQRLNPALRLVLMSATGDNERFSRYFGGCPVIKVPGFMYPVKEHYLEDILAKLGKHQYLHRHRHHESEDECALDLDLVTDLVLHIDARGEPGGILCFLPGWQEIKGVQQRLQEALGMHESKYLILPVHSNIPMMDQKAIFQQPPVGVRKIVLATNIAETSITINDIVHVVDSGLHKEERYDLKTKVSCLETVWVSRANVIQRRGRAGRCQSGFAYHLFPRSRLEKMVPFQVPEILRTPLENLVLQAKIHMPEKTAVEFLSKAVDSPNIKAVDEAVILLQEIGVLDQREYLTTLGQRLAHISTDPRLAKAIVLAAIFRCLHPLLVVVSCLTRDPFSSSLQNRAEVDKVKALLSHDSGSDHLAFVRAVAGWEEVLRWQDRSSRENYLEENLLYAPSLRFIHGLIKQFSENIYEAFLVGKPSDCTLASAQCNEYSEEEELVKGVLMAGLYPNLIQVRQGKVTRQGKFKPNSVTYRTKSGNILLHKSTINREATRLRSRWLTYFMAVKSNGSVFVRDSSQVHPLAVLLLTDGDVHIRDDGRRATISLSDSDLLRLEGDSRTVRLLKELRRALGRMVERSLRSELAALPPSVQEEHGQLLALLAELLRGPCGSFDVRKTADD

[4] = target: Citron Rho-interacting kinase (Homo sapiens, UniProt O14578)
[5] = target: Obg-like ATPase 1 (Homo sapiens, UniProt Q9NTK5)
[6] = target: T3, Dual specificity mitogen-activated protein kinase kinase 5 (Homo sapiens, UniProt Q13163)
T3 sequence (Q13163 whole entry): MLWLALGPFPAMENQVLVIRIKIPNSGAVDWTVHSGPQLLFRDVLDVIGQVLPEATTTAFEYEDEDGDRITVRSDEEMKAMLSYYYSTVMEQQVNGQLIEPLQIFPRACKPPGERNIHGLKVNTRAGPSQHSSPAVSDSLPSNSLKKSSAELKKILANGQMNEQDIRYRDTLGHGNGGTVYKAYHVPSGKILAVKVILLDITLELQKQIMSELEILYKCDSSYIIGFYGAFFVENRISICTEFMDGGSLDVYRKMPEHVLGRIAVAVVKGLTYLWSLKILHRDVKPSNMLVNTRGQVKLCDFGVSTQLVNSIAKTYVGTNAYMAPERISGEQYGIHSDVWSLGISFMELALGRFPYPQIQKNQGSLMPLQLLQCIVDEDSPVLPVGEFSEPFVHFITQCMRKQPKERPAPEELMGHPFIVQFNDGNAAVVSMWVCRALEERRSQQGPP

[7] = target: Dual specificity protein kinase CLK2 (Homo sapiens, UniProt P49760)
Further: in the data inactive means no Kd found up to 30 µM.

Sequence of Citron Rho-interacting kinase (O14578 whole entry): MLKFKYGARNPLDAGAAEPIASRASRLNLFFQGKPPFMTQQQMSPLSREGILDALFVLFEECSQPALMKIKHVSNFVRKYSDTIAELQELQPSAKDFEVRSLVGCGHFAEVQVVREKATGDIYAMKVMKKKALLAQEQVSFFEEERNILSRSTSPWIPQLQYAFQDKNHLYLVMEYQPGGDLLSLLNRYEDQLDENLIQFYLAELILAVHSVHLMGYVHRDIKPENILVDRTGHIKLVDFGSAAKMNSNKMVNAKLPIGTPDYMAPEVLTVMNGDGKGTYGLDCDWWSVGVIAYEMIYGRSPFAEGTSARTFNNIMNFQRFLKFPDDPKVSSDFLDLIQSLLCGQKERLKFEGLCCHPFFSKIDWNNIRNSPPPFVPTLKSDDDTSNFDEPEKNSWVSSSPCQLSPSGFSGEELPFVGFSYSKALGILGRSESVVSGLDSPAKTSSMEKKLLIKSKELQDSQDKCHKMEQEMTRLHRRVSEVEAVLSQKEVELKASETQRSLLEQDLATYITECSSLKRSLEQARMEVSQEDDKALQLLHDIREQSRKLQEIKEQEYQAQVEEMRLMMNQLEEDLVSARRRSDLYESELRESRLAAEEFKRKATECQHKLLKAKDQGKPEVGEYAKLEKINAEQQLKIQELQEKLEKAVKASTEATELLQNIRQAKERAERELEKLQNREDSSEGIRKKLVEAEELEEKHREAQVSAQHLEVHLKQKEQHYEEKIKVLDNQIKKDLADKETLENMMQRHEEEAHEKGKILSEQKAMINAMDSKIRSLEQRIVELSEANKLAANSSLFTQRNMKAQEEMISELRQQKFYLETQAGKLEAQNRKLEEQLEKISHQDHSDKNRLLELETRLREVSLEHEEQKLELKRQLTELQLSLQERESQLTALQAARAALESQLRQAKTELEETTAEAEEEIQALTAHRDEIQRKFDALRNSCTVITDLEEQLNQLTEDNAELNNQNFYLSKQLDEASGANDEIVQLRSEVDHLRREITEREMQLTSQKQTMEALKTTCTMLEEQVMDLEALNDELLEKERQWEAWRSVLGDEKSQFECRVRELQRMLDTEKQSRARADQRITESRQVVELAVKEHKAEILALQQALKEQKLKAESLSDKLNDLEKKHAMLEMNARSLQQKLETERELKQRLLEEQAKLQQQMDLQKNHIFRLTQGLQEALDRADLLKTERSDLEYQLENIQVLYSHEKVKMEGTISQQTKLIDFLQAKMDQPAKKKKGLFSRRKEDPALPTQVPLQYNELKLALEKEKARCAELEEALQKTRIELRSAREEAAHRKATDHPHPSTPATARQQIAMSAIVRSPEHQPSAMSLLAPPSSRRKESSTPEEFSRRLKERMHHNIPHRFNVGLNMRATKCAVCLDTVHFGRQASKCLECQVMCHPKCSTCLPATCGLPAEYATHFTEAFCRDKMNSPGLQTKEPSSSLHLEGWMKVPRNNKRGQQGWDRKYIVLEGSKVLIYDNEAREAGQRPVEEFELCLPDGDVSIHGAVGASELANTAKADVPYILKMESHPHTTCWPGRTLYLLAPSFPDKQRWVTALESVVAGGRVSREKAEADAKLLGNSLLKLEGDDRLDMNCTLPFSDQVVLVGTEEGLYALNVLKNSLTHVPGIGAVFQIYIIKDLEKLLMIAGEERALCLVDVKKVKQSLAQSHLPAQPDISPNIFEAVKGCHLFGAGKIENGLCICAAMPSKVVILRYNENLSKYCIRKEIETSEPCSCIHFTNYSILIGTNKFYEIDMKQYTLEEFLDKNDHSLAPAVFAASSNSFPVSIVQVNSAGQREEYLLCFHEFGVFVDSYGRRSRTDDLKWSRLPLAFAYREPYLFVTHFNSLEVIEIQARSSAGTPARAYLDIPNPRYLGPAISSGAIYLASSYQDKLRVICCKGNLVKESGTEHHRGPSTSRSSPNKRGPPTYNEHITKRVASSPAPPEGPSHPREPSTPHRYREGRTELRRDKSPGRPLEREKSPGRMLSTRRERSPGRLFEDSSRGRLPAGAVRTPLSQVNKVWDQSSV
Sequence of Obg-like ATPase 1 (Q9NTK5 whole entry, looked up): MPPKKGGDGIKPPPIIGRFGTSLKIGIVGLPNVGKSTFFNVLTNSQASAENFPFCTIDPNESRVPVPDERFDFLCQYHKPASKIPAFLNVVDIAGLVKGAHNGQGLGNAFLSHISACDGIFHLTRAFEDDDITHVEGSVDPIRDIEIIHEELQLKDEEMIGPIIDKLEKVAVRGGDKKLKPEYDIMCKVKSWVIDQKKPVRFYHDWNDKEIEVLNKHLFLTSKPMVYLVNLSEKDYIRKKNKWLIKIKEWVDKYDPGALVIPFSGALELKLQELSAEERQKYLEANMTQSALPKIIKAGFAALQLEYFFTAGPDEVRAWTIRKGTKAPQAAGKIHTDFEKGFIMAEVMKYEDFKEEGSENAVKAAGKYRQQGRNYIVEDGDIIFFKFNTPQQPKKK
Sequence of Putative heat shock protein HSP 90-beta 2 (Q58FF8 whole entry): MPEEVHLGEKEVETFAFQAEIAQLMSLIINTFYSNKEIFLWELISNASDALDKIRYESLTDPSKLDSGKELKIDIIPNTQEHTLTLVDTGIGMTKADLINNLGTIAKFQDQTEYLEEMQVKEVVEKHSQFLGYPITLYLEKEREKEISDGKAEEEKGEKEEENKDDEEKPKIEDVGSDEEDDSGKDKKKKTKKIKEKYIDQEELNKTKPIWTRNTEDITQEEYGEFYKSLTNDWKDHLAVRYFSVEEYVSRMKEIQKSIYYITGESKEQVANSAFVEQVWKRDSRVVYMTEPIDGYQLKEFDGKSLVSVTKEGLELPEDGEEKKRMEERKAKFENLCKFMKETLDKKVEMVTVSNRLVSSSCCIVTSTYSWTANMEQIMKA
Sequence of Dual specificity protein kinase CLK2 (P49760 whole entry): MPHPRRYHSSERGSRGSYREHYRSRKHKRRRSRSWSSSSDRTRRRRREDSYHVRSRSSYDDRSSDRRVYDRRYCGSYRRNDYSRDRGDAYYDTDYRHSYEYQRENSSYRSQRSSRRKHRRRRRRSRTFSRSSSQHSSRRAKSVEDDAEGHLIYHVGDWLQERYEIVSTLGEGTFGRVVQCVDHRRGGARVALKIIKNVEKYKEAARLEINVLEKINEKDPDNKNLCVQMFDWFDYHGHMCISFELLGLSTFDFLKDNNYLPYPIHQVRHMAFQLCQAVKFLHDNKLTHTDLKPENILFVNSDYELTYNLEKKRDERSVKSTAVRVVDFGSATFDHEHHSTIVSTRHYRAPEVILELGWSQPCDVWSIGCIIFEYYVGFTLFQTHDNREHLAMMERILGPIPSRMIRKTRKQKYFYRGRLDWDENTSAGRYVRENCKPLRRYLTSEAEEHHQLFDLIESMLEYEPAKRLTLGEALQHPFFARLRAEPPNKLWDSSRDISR

| Compound | Kd [1] | Kd [2] | Kd [3] | Kd [4] | Kd [5] | Kd [6] | Kd [7] |
| --- | --- | --- | --- | --- | --- | --- | --- |
| Cn1cc(C2=C(c3cn(C4CCN(Cc5ccccn5)CC4)c4ccccc34)C(=O)NC2=O)c2ccccc21 [ENZASTAURIN] | > 30 µM (inactive) | > 30 µM (inactive) | – | – | – | – | – |
| CN(C[C@@H]1COCCO1)S(=O)(=O)Nc1ccc2ccc3ncc(-c4cnn(C)c4)cc3c(=O)c2c1 [MK-2461] | > 30 µM (inactive) | > 30 µM (inactive) | > 30 µM (inactive) | > 30 µM (inactive) | > 30 µM (inactive) | > 30 µM (inactive) | – |
| CN1C/C=C/CCOc2cccc(c2)-c2ccnc(n2)Nc2cccc(c2)C1 [ZOTIRACICLIB] | > 30 µM (inactive) | > 30 µM (inactive) | > 30 µM (inactive) | > 30 µM (inactive) | – | > 30 µM (inactive) | – |
| C[C@@H](N)c1ccc(C(=O)Nc2ccnc3[nH]ccc23)cc1 [Y-39983] | > 30 µM (inactive) | > 30 µM (inactive) | > 30 µM (inactive) | 0.033 µM (active) | > 30 µM (inactive) | > 30 µM (inactive) | – |
| CCNC(=O)C#Cc1ccc2c(c1)NC(=O)/C2=C(\Nc1ccc(CN(C)C)cc1)c1ccccc1 | > 30 µM (inactive) | > 30 µM (inactive) | – | > 30 µM (inactive) | > 30 µM (inactive) | 0.177 µM (active) | – |
| COc1cc(Nc2ncc3c(n2)-c2ccc(Cl)cc2C(c2c(F)cccc2OC)=NC3)ccc1C(=O)O [ALISERTIB] | > 30 µM (inactive) | > 30 µM (inactive) | > 30 µM (inactive) | – | > 30 µM (inactive) | > 30 µM (inactive) | – |
| O=C(Nc1cc(C(F)(F)F)cc(C(F)(F)F)c1)c1cc(Cl)ccc1O [IMD-0354] | > 30 µM (inactive) | > 30 µM (inactive) | – | > 30 µM (inactive) | – | > 30 µM (inactive) | > 30 µM (inactive) |
| Cc1cc(Nc2ncnc3ccc(NC4=NC(C)(C)CO4)cc23)ccc1Oc1ccn2ncnc2c1 [TUCATINIB] | > 30 µM (inactive) | > 30 µM (inactive) | > 30 µM (inactive) | > 30 µM (inactive) | > 30 µM (inactive) | > 30 µM (inactive) | – |
| CCS(=O)(=O)c1cccc(-c2cc(C(=O)NC3CCN(C)CC3)c(C)c3[nH]c4ncc(C)cc4c23)c1 [TAK-901] | > 30 µM (inactive) | > 30 µM (inactive) | – | > 30 µM (inactive) | > 30 µM (inactive) | 6.8 µM (active) | – |
| N#CC[C@H](C1CCCC1)n1cc(-c2ncnc3[nH]ccc23)cn1 [RUXOLITINIB] | > 30 µM (inactive) | > 30 µM (inactive) | – | – | – | – | – |
| CNC(=O)c1nn(C)c2c1C(C)(C)Cc1cnc(Nc3ccc(N4CCN(C)CC4)cc3)nc1-2 [MILCICLIB] | > 30 µM (inactive) | > 30 µM (inactive) | – | > 30 µM (inactive) | – | > 30 µM (inactive) | > 30 µM (inactive) |
| CC(=O)NCC(=O)N1[C@@H]2CC[C@H]1c1ccc(Nc3ncc(C(F)(F)F)c(NC4CCC4)n3)cc12 [PF-03814735] | > 30 µM (inactive) | > 30 µM (inactive) | – | > 30 µM (inactive) | > 30 µM (inactive) | – | – |
| CCCCCCCCCCCCCCCCCCOP(=O)([O-])OC1CC[N+](C)(C)CC1 [PERIFOSINE] | > 30 µM (inactive) | > 30 µM (inactive) | – | > 30 µM (inactive) | > 30 µM (inactive) | > 30 µM (inactive) | – |
| C[C@H]1CNCCCN1S(=O)(=O)c1cccc2cncc(F)c12 | > 30 µM (inactive) | > 30 µM (inactive) | – | > 30 µM (inactive) | – | > 30 µM (inactive) | – |
| C[C@@H](Oc1cc(C(=O)Nc2ccc(C(=O)N3CCN(C)CC3)cc2)nnc1N)c1c(Cl)ccc(F)c1Cl | > 30 µM (inactive) | > 30 µM (inactive) | – | > 30 µM (inactive) | – | > 30 µM (inactive) | – |
| COc1cc([C@@H]2c3cc4c(cc3[C@H](O)[C@H]3COC(=O)[C@@H]23)OCO4)cc(OC)c1OC [AXL-1717] | > 30 µM (inactive) | > 30 µM (inactive) | – | > 30 µM (inactive) | > 30 µM (inactive) | > 30 µM (inactive) | – |
| Cc1[nH]c(/C=C2\C(=O)Nc3ccccc32)c(C)c1CCC(=O)O [ORANTINIB] | > 30 µM (inactive) | > 30 µM (inactive) | > 30 µM (inactive) | > 30 µM (inactive) | – | 4.94 µM (active) | – |
| CNC(=O)c1ccccc1Sc1ccc2c(/C=C/c3ccccn3)n[nH]c2c1 [AXITINIB] | > 30 µM (inactive) | > 30 µM (inactive) | > 30 µM (inactive) | – | > 30 µM (inactive) | – | – |
| C[C@@H](Oc1cc(-n2cnc3ccc(CN4CCN(C)CC4)cc32)sc1C(N)=O)c1ccccc1C(F)(F)F [GSK-461364] | > 30 µM (inactive) | > 30 µM (inactive) | > 30 µM (inactive) | – | > 30 µM (inactive) | – | – |
| CNC(=O)c1cc(Oc2ccc(NC(=O)Nc3cc(C(C)(C)C)nn3-c3ccc4ncccc4c3)c(F)c2)ccn1 [REBASTINIB] | > 30 µM (inactive) | > 30 µM (inactive) | > 30 µM (inactive) | > 30 µM (inactive) | > 30 µM (inactive) | > 30 µM (inactive) | – |
| COc1cc2c(Nc3ccc(Cl)c(Cl)c3F)ncnc2cc1OC[C@@H]1C[C@@H]2CN(C)C[C@@H]2C1 [TESEVATINIB] | > 30 µM (inactive) | > 30 µM (inactive) | > 30 µM (inactive) | > 30 µM (inactive) | > 30 µM (inactive) | 65.7 µM (active) | – |
| O=C(NOCCO)c1cc(CN2OCCCC2=O)c(F)c(F)c1Nc1ccc(I)cc1F [RO-4987655] | > 30 µM (inactive) | > 30 µM (inactive) | > 30 µM (inactive) | – | > 30 µM (inactive) | – | – |
| NC(=O)c1c(OCc2c(F)cc(Br)cc2F)nsc1NC(=O)NCCCCN1CCCC1 [OSI-632] | > 30 µM (inactive) | > 30 µM (inactive) | > 30 µM (inactive) | > 30 µM (inactive) | – | > 30 µM (inactive) | – |
| FC(F)(F)c1ccc(/C=C/c2nc(COc3ccc(CCCCn4ccnn4)cc3)co2)cc1 [MUBRITINIB] | > 30 µM (inactive) | > 30 µM (inactive) | – | > 30 µM (inactive) | – | > 30 µM (inactive) | > 30 µM (inactive) |
